Assay results from patent US11807627B2, “Morphic forms of complement factor D inhibitors” (priority 2018, dated 2023).
≈ marks a conversion by molar mass, not a printed value.

Experiments:
[1] = Interconversion experiments: competitive slurries (Example 2, Table 6); assay type: physicochemical
Protocol: A solution of Compound 3 and solvent/solvent system of interest was prepared. Solids persisted in solution. The samples were placed onto a stir plate at ambient (RT) or elevated (ET) temperatures. The samples were monitored to ensure that solids persisted during the slurry process. The solids were collected via vacuum filtration and dried under ambient conditions. […] At ambient temperature, Forms B and M are both present after almost a week of slurrying.

Thermal stability by TGA = assay type: physicochemical; details: to 150° C.
Protocol: TG analyses were performed using a TA Instruments Q5000 IR thermogravimetric analyzer. Temperature calibration was performed using nickel and Alumel™. Each sample was placed in an aluminum pan. The sample was hermetically sealed, the lid pierced, then inserted into the TG furnace. The furnace was heated under nitrogen. The method code on the thermogram is an abbreviation for the start and end temperature as well as the heating rate; e.g., […] means “from 25° C. to 350° C., at 10° C./min”.

[2] = Solid state stress testing (temperature, humidity, storage, photostability); assay type: physicochemical
[3] = Solution stress testing (acid, base, oxidative degradation); assay type: physicochemical
[4] = pH experiments and SIF/SGF/FaSSIF/FeSSIF solubility (Examples 3 and 4); assay type: physicochemical
[5] = Caco2 permeability and efflux ratio; assay type: in vitro ADME; details: human, Caco-2; Caco2; read-out: Efflux ratio (B-A/A-B)
Caco2 = Caco2 permeability and efflux ratio; assay type: in vitro ADME; details: A-B
[6] = Dose number and BCS classification; assay type: physicochemical
[7] = ICH stability study of amorphous Compound 2; assay type: physicochemical
Text: Compound 2 stored in double LDPE bag with silica gel in aluminum receptacle with lid had the following stability characteristics described in Table 9.

[8] = Vapor stress experiments at room temperature; assay type: physicochemical
Text: Compound 3 was placed into vials which were sealed into chambers containing organic solvents. The samples were kept under these conditions for a period of days and then checked for signs of morphology changes.

[9] = Interconversion experiments: heat stress of forms (Table 6); assay type: physicochemical; details: no solvent
Protocol: Saturated solutions of Compound 3 or solids generated from crystallization attempts were prepared. A small quantity of the sample was placed into an oven set at a specified temperature. The samples were monitored, microscopically, for signs of crystallization.

[10] = Drying of isolated samples at 50° C. for approximately 24 hours; assay type: physicochemical
Protocol: Samples produced from thermal cycling, cooling and evaporation experiments were dried at 50° C. for approximately 24 hours to assess any de-solvation/dehydration. From temperature cycling experiments, 3 samples converted upon drying: • Acetonitrile sample converted from Form J to amorphous; • 40% Ethanol/60% Water (% v/v) converted from Form N to Form P; and • Methanol sample converted from Form O to amorphous.

[11] = Thermogravimetric/differential thermal analysis (TG/DTA); assay type: physicochemical; details: Table 22B
Protocol: Approximately, 5 mg of material was weighed into an open aluminium pan and loaded into a simultaneous thermogravimetric/differential thermal analyzer (TG/DTA) and held at room temperature. The sample was then heated at a rate of 10° C./min from 20° C. to 400° C. during which time the change in sample weight occurred was recorded along with any differential thermal events (DTA). Nitrogen was used as the purge gas at a flow rate of 300 cm^3/min.

[12] = Storage stability of Compound 3 forms (80° C., 40° C./75% RH, 25° C./60% RH, ambient); assay type: physicochemical; details: 40° C./75% RH or 25° C./60% RH, capped or uncapped vial
Protocol: No changes by XRPD or HPLC purity were observed when the material was stored at 40° C./75% RH, 80° C. or under ambient conditions.

[13] = Solvent solubility screen by solvent addition (lyophilized material); assay type: physicochemical; details: thermodynamic from solid
Protocol: A solvent solubility screen was conducted using 32 solvent systems. Approximately 360 mg of Compound 3 Form A was weighed into a 20 mL glass vial and dissolved using 18 mL of 1,4-dioxane. 0.5 mL of the solution was then dispensed into thirty-four 2 mL glass vials (approx. 10 mg per vial). The Compound 3 Form A solutions were then frozen (at −50° C.) and dried by lyophilization using a Lablyo mini freeze drier. Post-lyophilization, a sub-sample was taken and analyzed by XRPD. Material was successfully rendered amorphous by lyophilization.
The material produced from lyophilization was used for the solubility assessment. Solubility was estimated by a solvent addition technique. The solubility study was completed as follows: • Each solvent system was added to the appropriate vial in 5 volume aliquots until 100 volumes had been added or until the API dissolved; • Between each addition, samples were heated to 40° C. to check dissolution at elevated temperatures; • If 100 volumes of solvent were added without dissolution, solubility was calculated to be below this point.

In the case of CC(=O)c1nn(CC(=O)N2[C@H](C(=O)Nc3nc(Br)ccc3C)C[C@@]3(C)C[C@@H]23)c2ccc(-c3cnc(C)nc3)cc12 [A vs. B], the “Interconversion: XRPD Result after slurry” value ([1]; ACN, RT Slurry) is reported as “Form E”, the “Interconversion: XRPD Result after slurry” value ([1]; EtOAc, RT Slurry) is reported as “Form B” and the “Interconversion: XRPD Result after slurry” value ([1]; EtOAc, ~50° C. Slurry) is reported as “Form B”.
For CC(=O)c1nn(CC(=O)N2[C@H](C(=O)Nc3nc(Br)ccc3C)C[C@@]3(C)C[C@@H]23)c2ccc(-c3cnc(C)nc3)cc12 [A, B, G], the “Interconversion: XRPD Result after slurry” value ([1]; EtOAc, RT Slurry) was “Form B”.
For CC(=O)c1nn(CC(=O)N2[C@H](C(=O)Nc3nc(Br)ccc3C)C[C@@]3(C)C[C@@H]23)c2ccc(-c3cnc(C)nc3)cc12 [B, G, M], the “Interconversion: XRPD Result after slurry” value ([1]; EtOAc, ~50° C. Slurry) was “Form M*”.
In the case of CC(=O)c1nn(CC(=O)N2[C@H](C(=O)Nc3nc(Br)ccc3C)C[C@@]3(C)C[C@@H]23)c2c(C)cc(-c3cnc(C)nc3)cc12 [Compound 2], the “Thermal Stability by TGA” value (Thermal stability by TGA) is reported as ~0.2% wt. loss to 150 °C, the “Solid State Stress Testing: Chemical Stability” value ([2]; 70° C./75% RH) is reported as “No degradation” and the “Solid State Stress Testing: Humidity” value ([2]; 70° C./75% RH) is reported as “Amorphous crystallizes out”. The “Solid State Stress Testing: Photostability” value ([2]; exposure to UV visible) was “No light sensitivity”, the “Solution stress testing: Acid degradation” value ([3]; 0.1N HCl) was “Degradation observed” and the “Acid degradation, extent” value ([3]; 0.1N HCl, 7-days at RT) was “(~8% 7-days at RT)”. The “Solution stress testing: Base degradation” value ([3]; 0.1N NaOH) was “Degradation observed”, the “Base degradation, extent” value ([3]; 0.1N NaOH, 2-days at RT) was “(~18% 2-days at RT)” and the “Solution stress testing: Oxidative degradation” value ([3]; H2O2) was “Not susceptible to oxidation”. For the same compound, the solubility ([4]; FaSSIF, read-out: FaSSIF solubility) was 2.6 µg/mL (≈ 0.00422 mM), the solubility ([4]; FeSSIF, read-out: FeSSIF solubility) was 4.7 µg/mL (≈ 0.00762 mM) and the efflux ratio [5] was 1.2. For the same compound, the “Caco2: A-B” value (Caco2) was “Caco2: A-B ~26 × 10^−6 cm/s”, the BCS class [6] was “BCS II compound” and the “Dose Number” value ([6]; for 125 mg) was “Dose Number (for 125 mg): 106-190”. The Assay ([7]; 5° C./NR RH, 1-month) was 97.3%, the “Total Impurities” value ([7]; 5° C./NR RH, 1-month) was 1.9% and the “Water Content” value ([7]; 5° C./NR RH, 1-month) was 2.5%. The XRPD ([7]; 5° C./NR RH, 1-month) was “amorphous”, the Assay ([7]; 5° C./NR RH, 3-month) was 97.5% and the “Total Impurities” value ([7]; 5° C./NR RH, 3-month) was 1.7%. The “Water Content” value ([7]; 5° C./NR RH, 3-month) was 2.3%, the Assay ([7]; 5° C./NR RH, Time Zero) was 97.2% and the “Total Impurities” value ([7]; 5° C./NR RH, Time Zero) was 1.9%. For the same compound, the “Water Content” value ([7]; 5° C./NR RH, Time Zero) was 1.9%, the XRPD ([7]; 5° C./NR RH, Time Zero) was “amorphous” and the Assay ([7]; 25° C./60% RH, 1-month) was 97.0%. For the same compound, the “Total Impurities” value ([7]; 25° C./60% RH, 1-month) was 1.9%, the “Water Content” value ([7]; 25° C./60% RH, 1-month) was 3.0% and the XRPD ([7]; 25° C./60% RH, 1-month) was “amorphous”. For the same compound, the Assay ([7]; 25° C./60% RH, 2 weeks) was 99.5%, the “Total Impurities” value ([7]; 25° C./60% RH, 2 weeks) was 1.9% and the “Water Content” value ([7]; 25° C./60% RH, 2 weeks) was 2.7%%. The Assay ([7]; 25° C./60% RH, 3-month) was 97.8%, the “Total Impurities” value ([7]; 25° C./60% RH, 3-month) was 1.9% and the “Water Content” value ([7]; 25° C./60% RH, 3-month) was 3.1%. For the same compound, the Assay ([7]; 25° C./60% RH, Time Zero) was 97.2%, the “Total Impurities” value ([7]; 25° C./60% RH, Time Zero) was 1.9% and the “Water Content” value ([7]; 25° C./60% RH, Time Zero) was 1.9%. The XRPD ([7]; 25° C./60% RH, Time Zero) was “amorphous”, the Assay ([7]; 40° C./75% RH, 1-month) was 97.5% and the “Total Impurities” value ([7]; 40° C./75% RH, 1-month) was 1.9%. For the same compound, the “Water Content” value ([7]; 40° C./75% RH, 1-month) was 4.0%, the XRPD ([7]; 40° C./75% RH, 1-month) was “amorphous” and the Assay ([7]; 40° C./75% RH, 2 weeks) was 99.8%. The “Total Impurities” value ([7]; 40° C./75% RH, 2 weeks) was 1.9%, the “Water Content” value ([7]; 40° C./75% RH, 2 weeks) was 3.5% and the Assay ([7]; 40° C./75% RH, 3-month) was 96.4%. The “Total Impurities” value ([7]; 40° C./75% RH, 3-month) was 1.6%, the “Water Content” value ([7]; 40° C./75% RH, 3-month) was 3.8% and the Assay ([7]; 40° C./75% RH, Time Zero) was 97.2%. The “Total Impurities” value ([7]; 40° C./75% RH, Time Zero) was 1.9%, the “Water Content” value ([7]; 40° C./75% RH, Time Zero) was 1.9% and the XRPD ([7]; 40° C./75% RH, Time Zero) was “amorphous”.
With CC(=O)c1nn(CC(=O)N2[C@H](C(=O)Nc3nc(Br)ccc3C)C[C@@]3(C)C[C@@H]23)c2ccc(-c3cnc(C)nc3)cc12 [Disordered] the “Vapor stress: XRPD Result” value ([8]; EtOAc vapor) was “Form B” and the “Vapor stress: XRPD Result” value ([8]; MTBE vapor) was “Form C”.
For CC(=O)c1nn(CC(=O)N2[C@H](C(=O)Nc3nc(Br)ccc3C)C[C@@]3(C)C[C@@H]23)c2ccc(-c3cnc(C)nc3)cc12 [Form C], the “Interconversion: XRPD Result after heating” value ([9]; ~50° C.) was “Form C”.
With CC(=O)c1nn(CC(=O)N2[C@H](C(=O)Nc3nc(Br)ccc3C)C[C@@]3(C)C[C@@H]23)c2ccc(-c3cnc(C)nc3)cc12 [Form E] the “Interconversion: XRPD Result after heating” value ([9]; ~50° C.) was “Form G”.
For CC(=O)c1nn(CC(=O)N2[C@H](C(=O)Nc3nc(Br)ccc3C)C[C@@]3(C)C[C@@H]23)c2ccc(-c3cnc(C)nc3)cc12 [Form F + C], the “Interconversion: XRPD Result after heating” value ([9]; ~50° C.) was “Form F + C”.
With CC(=O)c1nn(CC(=O)N2[C@H](C(=O)Nc3nc(Br)ccc3C)C[C@@]3(C)C[C@@H]23)c2ccc(-c3cnc(C)nc3)cc12 [Form G] the “Interconversion: XRPD Result after heating” value ([9]; ~50° C.) was “Form G” and the “Interconversion: XRPD Result after heating” value ([9]; ~160° C.) was “Form M”.
In the case of CC(=O)c1nn(CC(=O)N2[C@H](C(=O)Nc3nc(Br)ccc3C)C[C@@]3(C)C[C@@H]23)c2ccc(-c3cnc(C)nc3)cc12 [Form J + Form L], the “Interconversion: XRPD Result after heating” value ([9]; ~50° C.) is reported as “Form G”.
With CC(=O)c1nn(CC(=O)N2[C@H](C(=O)Nc3nc(Br)ccc3C)C[C@@]3(C)C[C@@H]23)c2ccc(-c3cnc(C)nc3)cc12 [Form M] the “Relative stability in competitive slurry” value ([1]; Forms B and M, approximately 50° C.) was “most stable”.
With CC(=O)c1nn(CC(=O)N2[C@H](C(=O)Nc3nc(Br)ccc3C)C[C@@]3(C)C[C@@H]23)c2ccc(-c3cnc(C)nc3)cc12 [Form N] the “Form after drying (de-solvation/dehydration)” value [10] was “Form P” and the “Onset Temp: Weak thermal events” value [11] was “onset of 134.7 °C”.
For CC(=O)c1nn(CC(=O)N2[C@H](C(=O)Nc3nc(Br)ccc3C)C[C@@]3(C)C[C@@H]23)c2ccc(-c3cnc(C)nc3)cc12 [Form O], the “Form after drying (de-solvation/dehydration)” value [10] was “amorphous” and the “Onset Temp: Melting” value ([11]; listed as Pattern O) was “Melting 179.6 °C”.
For CC(=O)c1nn(CC(=O)N2[C@H](C(=O)Nc3nc(Br)ccc3C)C[C@@]3(C)C[C@@H]23)c2ccc(-c3cnc(C)nc3)cc12 [Lyophilized Compound 3], the “Stability: recrystallization upon storage” value [12] was “no recrystallization”, the solubility ([13]; 2-propanol/heptane mixtures, organic solvent or mixture, 2-propanol, 95% 2-propanol/5% heptane, 70% 2-propanol/30% heptane, toluene, elevated temperatures (40° C.), read-out: Solubility (solvent addition), dissolution at elevated temperatures) was greater than 200000 µg/mL and the solubility ([13]; organic solvent or mixture, 1,4-dioxane, 1-butanol, 2-methyl THF, 95% 2-propanol/5% water, acetone, acetonitrile, 95% acetonitrile/5% water, chloroform, DCM, DMSO, ethyl acetate (dry), ethanol, isopropyl acetate, methanol, MEK, MIBK, DMF, DMA, THF, 95% methanol/5% water, read-out: Solubility (solvent addition)) was no less than 200000 µg/mL. The solubility ([13]; organic solvent or mixture, 50% 2-propanol/50% heptane and 50% ethanol/50% heptane (% v/v), read-out: Solubility (solvent addition)) was greater than 100000 µg/mL and the solubility ([13]; n-heptane, tert-butylmethyl ether, ethyl ether, water, 50% 2-propanol/50% water, 40% ethanol/60% water, read-out: Solubility (solvent addition)) was less than 10000 µg/mL.
